Laboratory results published in patent US20160355782A1, “METHOD FOR ENHANCING DIFFERENTIATION OF DOPAMINERGIC NEURONS” (Buddhist Tzu Chi Medical Foundation, priority 2015, published 2016).

Tested on: rat TH promoter
Experiment: ChIP at the TH promoter with chromatin from E15.5 VM tissue of treated embryos
Format: in vivo
Settings: 10 μg/kg UCN i.p. every 24 h for 3 days
Procedure: VM precursor cultures were treated with 1 μM UCN for about 1 to 2 days. VM cells for ChIP from rat embryos, the pregnant rats on day 12.5 of gestation were intra-peritoneally injected with saline as control or 10 μg/kg UCN as treatment every 24 h for 3 days before sacrifice. The ventral mesencephalon from E15.5 embryos was dissected. Cells were cross-linked with 1% formaldehyde, and stored at −80° C. before use.
Chromatin immuno-precipitation (ChIP) assays were performed using SimpleChIP® Enzymatic Chromatin IP kit (Cell Signaling Technology, Beverly, Mass.) by the instruction of the kit. Briefly, cross-linked chromatin in the cells was enzymatic digested to generate fragments with a length of approximately 150-900 bp (1 to 5 nucleosomes). The chromatin was subjected to immuno-precipitation using the following antibodies: anti-Nurr1 (Santa Cruz), anti-acetyl histone H3 (Ac-H3), anti-HDAC1, anti-CoREST (all from Upstate Biotechnology), anti-MeCP2 (Chemicon,), anti-Foxa2 (Cell signaling Technology), anti-Pitx3, and IgG (both from Abcam). Immuno-precipitated DNA fragments were collected by protein G magnetic beads. DNA/protein complexes were eluted from the beads and reverse cross-linked at 65° C. for 2 h in the presence of proteinase K. Purified DNA were subjected to real-time PCR using primers specific to rat TH promoter loci (referring to Table 2). […]

Urocortin [UCN]
Nurr1 binding to the TH promoter regions (NB2, NB3 and repeated CpGs): more abundant | histone H3 acetylation in TH promoter regions: significantly increased
